From patent US10631541B1, “Nitrogen-15 isotope as a plant growth regulator” (Floratine Products Group, Inc, priority 2016, dated 2020)

Columns and labels:
Annual Rye = test: Laboratory trial: Annual Rye seeds in trays of potting soil, sprayed every other day; type: in vivo; conditions: averages of 74 plants per tray after 1 week; for Root Length, percent inc (versus sugar solution): increase over sugar solution (2.9 cm); for Blade Length, percent increase (versus sugar solution): increase over sugar solution (6.3 cm); for Blade Length / Root Length: ingredient added to standard sugar solution (Ni 0.003% w/w, Co 0.003% w/w, nitrogen-15 0.00001% w/w), spray 12 ml per square meter every other day
Description: Some characteristics of the plant growth regulating composition according to the invention are illustrated by the following examples. The laboratory trial involved planting Annual Rye seeds in trays of commercially available potting soil. The seed density on the trays was 358 grams per square meter. The volume of each spray was 12 ml per square meter after the grass emerged. The spray frequency was every other day. The following ingredients were added at these concentrations to a standard sugar solution: Ni 0.003% w/w (Nickel), Co 0.003% w/w (cobalt) and nitrogen-15 0.00001% w/w.

Common Bermuda = test: Trial on turf, sprayed once with nitrogen-15 spray solutions; type: in vivo
Description: A trial on turf was conducted on Common Bermuda. The turf was sprayed once with spray solutions that contained four concentrations of nitrogen-15 ammonium sulfate. The concentrations ranged from: 0.001% though 0.004% w/w. The nitrogen-15 was mixed with a sugar solution as in the laboratory trial.

Molecule | Root Length, percent inc (versus sugar solution) (Annual Rye) [%] | Blade Length, percent increase (versus sugar solution) (Annual Rye) [%] | Blade Length (Annual Rye) [cm] | Root Length (Annual Rye) [cm] | visual color of turf plot (Common Bermuda; plot sprayed once with 0.004% w/w in sugar solution, four concentrations 0.001% through 0.004% w/w compared) | Percent increase in leaf length (Common Bermuda; turf sprayed once, 0.001% through 0.004% w/w in sugar solution)
Nitrogen-15 | 20.70 | 25.40 | 7.9 | 3.5 | – | –
[Ni] [Ni, Nickel] | 41.40 | 15.90 | 7.3 | 4.1 | – | –
O=S(=O)(O)O.[15NH3].[15NH3] [nitrogen-15 ammonium sulfate] | – | – | – | – | darkest green | the same as the laboratory trial
[Co] [Co, cobalt] | 41.40 | 11.10 | 7.0 | 4.1 | – | –
